Source: PubChem BioAssay AID179 (DTP/NCI, 2004)
Several values for one entry are separate records, joined by “and”; a condition that tells them apart may be missing. Equal entries are not always repeated. Activity calls are given as the source filed them.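 The calls were made as follows: active = compounds giving half or more protection of infected cells from virus-caused growth loss, again on retest; inactive = the rest.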 Where a SMILES comes first, the peptide text is derived from it.

System: CEM cells HIV-1 protection, formazan growth assay
Test: NCI AIDS Antiviral Assay
Details: for IC50: measured here: growth of uninfected CEM cells
Procedure, shortened: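 Soluble formazan readout of cell growth; CEM cells ± HIV-1; 5 drug concs. ≥50% protection → retest; ≥50% again = moderately active; reproducible 100% = confirmed active.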

SMILES	EC50	IC50	outcome
O=[N+]([O-])c1cc(C(F)(F)F)ccc1SSc1ccc(C(F)(F)F)cc1[N+](=O)[O-]	> 200 µM	24.5 µM and 13.2 µM	
O=C1Oc2cc3c(c4cccc1c24)OCN(c1ccc(Cl)cc1)C3	> 8.13 µM	> 8.13 µM	
CC(C)C/C(CC(=O)CCC(=O)Nc1ccccc1[N+](=O)[O-])=N\NC(=O)c1cc2ccccc2cc1O	> 70.8 µM	11.7 µM	
CCc1cccc(C)c1NC(=O)CCc1nnc2s/c(=C\c3cccc4ccccc34)c(=O)n12	> 200 µM	191 µM	
O=C(CCC(=O)CC(O)(C(F)(F)F)C(F)(F)F)CC(O)(C(F)(F)F)C(F)(F)F	> 200 µM	47.9 µM	
CCOC(=O)C(C)c1nc2cc(N3CCOCC3)c(F)cc2[nH]c1=O (configuration not stated)	> 200 µM	> 200 µM	
N#CCC(=O)N/N=C(/C(=O)Nc1ccccc1)C1C(=O)N(c2ccccc2)N=C1N (configuration not stated)	> 170 µM	> 170 µM	
CCCCCC1=CC(=O)C1(Cl)Cl	> 200 µM	27.5 µM	
CCN(CC)CCCN1CCc2c([nH]c3ccccc23)C1c1cccnc1 (configuration not stated)	> 186 µM	> 186 µM	
CC(=O)c1c2n(n(-c3ccccc3)c1=O)C(=O)c1nccnc1-2	> 200 µM	> 200 µM	
FC(F)(F)c1ccc2c3c(c4c(c2n1)OCN(Cc1ccc(Cl)cc1Cl)C4)CN(Cc1ccc(Cl)cc1Cl)CO3	0.282 µM	4.37 µM	
CC(C)c1cc(C(C)C)c(B(c2ccccc2)c2ccccc2)c(C(C)C)c1B(c1ccccc1)c1ccccc1	> 100 µM	> 100 µM	
CC(=O)SCCC(NC(=S)Nc1ccccc1)P(=O)(Oc1ccccc1)Oc1ccccc1 (configuration not stated)	> 200 µM	49 µM	
CN(C)CCOc1cccc2c1C(=O)c1ccccc1C2=O			inactive
O=C(NCCCCN(CCCNC(=O)C(F)(F)F)Cc1ccccc1)C(F)(F)F	> 200 µM	97.7 µM	
C[C@H]1CC[P+](Cc2ccccc2)(c2ccccc2)C1 (some centres not stated)	> 708 µM	33.1 µM	
CC1(C)C=Cc2c(cc3oc4ccc5c(c4c(=O)c3c2O)C=CC(C)(C)O5)O1	36.3 µM	50.1 µM	
CCN1C(=O)C(=O)OC1=C(c1ccccc1)c1ccccc1			inactive
CNC(=O)n1ncc2ccc([N+](=O)[O-])cc21	> 200 µM	158 µM	
Cc1ccc(C(O)/C(=N/N)c2nc3ccc([N+](=O)[O-])cc3[nH]c2=O)cc1 (configuration not stated)	> 537 µM	457 µM	
CCOC(=O)c1c2c(n3ccc(C)cc13)C(=O)C(c1ccc([N+](=O)[O-])cc1)S2 (configuration not stated)			inactive
Cc1ccc2ccc3c(-c4ccccc4)cc(C)nc3c2n1	> 20 µM	3.31 µM	

SMILES	EC50	IC50	outcome
CCN(CC)C(=O)C(C)n1cc(C)c(=O)[nH]c1=O (configuration not stated)	> 977 µM	> 977 µM	
CCC(Sc1cc(Cl)c(C)cc1S(=O)(=O)Nc1nc(N)nc(N(C)C)n1)C(=O)O (configuration not stated)			inactive
Nc1nc(Cl)cc(NC23CC4CC(CC(C4)C2)C3)n1	> 200 µM	> 200 µM	
CC(=O)Oc1cc(S(=O)(=O)Nc2n[nH]c(Nc3ccc(C)cc3)n2)c(S)cc1Cl	155 µM	263 µM	
CC1(C)CC(=O)C(C=NC(=O)c2ccncc2)=C(O)C1	100 µM	> 200 µM	
COC(=O)c1cc(=O)nc(N/N=C/c2ccccc2O)s1	> 85.1 µM	57.5 µM	
CS/C(=N/N=C/c1ccc2ccccc2n1)SS/C(=N/N=C\c1ccc2ccccc2n1)SC	> 200 µM	178 µM	
Cc1cc(S(=O)(=O)Nc2nc(N)nc(N(C)C)n2)c(S)cc1Cl	> 182 µM	166 µM	
CSC(=NC(=O)c1ccccc1)SCCSC(=NC(=O)c1ccccc1)SC	> 2.34 µM	> 2.34 µM	
NC1C2CC3CC(C2)CC1(N)C3 (configuration not stated)			inactive
NC(=O)C1N=NSC1NC(=O)c1ccc([N+](=O)[O-])cc1 (configuration not stated)	> 200 µM	26.9 µM	
COCN1C(=O)[C@@H]2CCCN2C(=O)c2cc(OC)c(Cc3ccccc3)cc21	> 200 µM	> 200 µM	
COCCCNC1=C(C#N)C(=O)NC(c2cccc([N+](=O)[O-])c2)S1 (configuration not stated)	> 269 µM	39.8 µM	
C=C1C(OC)O[C@@H]2O[C@@]3(C)CC[C@H]4[C@H](C)CC[C@@H]1[C@@]24O3 (some centres not stated)	> 200 µM	> 200 µM	
CC1=N/C(=C\c2cccs2)C(=O)O1	> 200 µM	> 200 µM	
Oc1ccccc1C(Nc1nc2ccccc2s1)c1ccc2cccnc2c1O (configuration not stated)	> 33.9 µM	2.57 µM	
COc1nc2ncc([C@@H](OC(C)=O)[C@@H](COC(C)=O)OC(C)=O)nc2c(=O)n1C	> 200 µM	> 200 µM	
C=C1c2nc3ccccc3n2C=C(c2ccccc2)N1c1ccc([N+](=O)[O-])cc1	> 200 µM	42.7 µM	
CCC/C=[N+](\[O-])[C@@H]1CC(n2cc(C)c(=O)[nH]c2=O)OC1CO[Si](C)(C)C(C)(C)C (some centres not stated)	> 200 µM	107 µM	
CN(C)c1ccc(N=C2C=CC(=C(C#N)C#N)c3ccccc32)cc1			inactive
CC(CN1CCCCC1)SSC(C)CN1CCCCC1 (configuration not stated)	> 200 µM	24 µM	
N=C1OC(CN2CCN(c3ccccc3)CC2)CN1C(=S)Nc1ccccc1 (configuration not stated)	> 200 µM	141 µM	

SMILES	EC50	IC50	outcome
O=CCCn1[nH]c(=O)ccc1=O	> 1480 µM	1410 µM	
Brc1ccc(-c2cc3c(cc2C2SCCS2)OCO3)cc1	> 67.6 µM	> 67.6 µM	
CC(C)(NC(=O)OCc1ccccc1)C(=O)NC(Cc1ccccc1)C(=O)O (configuration not stated) (HELM PEPTIDE1{[O=C(OCc1ccccc1)[*:2]].[Aib].[O=C(O)C(Cc1ccccc1)N[*:1]]}$$$$V2.0)	> 200 µM	> 200 µM	
C[N+](C)(C)CC(=O)N/N=C(\C(=O)NC1=C(Cl)C(=O)c2ccccc2C1=O)C(C#N)c1nc(-c2ccc([N+](=O)[O-])cc2)cs1 (configuration not stated)			inactive
O=C(Nc1nc(=S)[nH][nH]1)C(=O)C(C(=O)c1ccc2ccccc2c1)C1OC(=O)c2ccccc21 (configuration not stated)	> 55 µM	25.7 µM	
O=C(NC(=S)Nc1ccc(Cl)c(Cl)c1)c1cccc([N+](=O)[O-])c1	> 200 µM	17 µM	
Nc1ccc(C(=O)NN2C(=O)C(Cl)C2c2ccccc2Cl)cc1 (configuration not stated)	> 200 µM	3.31 µM	
CCOC(=O)NC(N(C)C(C(C)C)P(=O)(OCC)OCC)(C(F)(F)F)C(F)(F)F (configuration not stated)	> 200 µM	> 200 µM	
CCCCCCCCCCCCCCCCP(=O)(O)OP(=O)(O)OCC1OC(n2ccc(N)nc2=O)C(O)C1O (configuration not stated)	> 200 µM		
CN1C(=S)Nc2ncn(C)c2S1(=O)=O	> 81.3 µM	> 81.3 µM	
CC(C)OC1NC(=O)Oc2ccccc21 (configuration not stated)	> 200 µM	132 µM	
O=S1(=O)C=Cc2ccccc2CC1	> 1290 µM	741 µM	
CC(=O)Oc1c(OC(C)=O)c(-c2ccc(O)c(O)c2)c(O)c(O)c1-c1ccc(O)cc1	> 200 µM	27.5 µM	
CNNCc1ccc(C(=O)NC(C)C)cc1	> 977 µM	229 µM	
O=c1c(S(=O)(=O)Oc2ccccc2)coc2cc(F)ccc12	> 200 µM	135 µM	
Nc1nc(N)nc(-c2cnccn2)n1	> 200 µM	> 200 µM	
CCc1ccccc1C1(Br)C(=O)c2ccccc2C1=O	> 200 µM	45.7 µM	
COc1c(Cl)cc(C(=Cc2c(F)c(F)c(F)c(F)c2F)c2cc(Cl)c(OC)c(C(=O)O)c2)cc1C(=O)O	324 µM	490 µM	
COc1cc([N+](=O)[O-])c(OC)c2c(=O)[nH]c(=O)[nH]c12	> 47.9 µM	> 47.9 µM	
COCCN(CCNC(=O)c1cccc2c(N)c3cccc(C)c3nc12)CCOC	> 2 µM	0.269 µM	
O=C(CC(=O)N1N=C(c2ccccc2)C(N=Nc2ccccc2Cl)C1=O)Nc1ccccc1Cl (configuration not stated)	> 52.5 µM	29.5 µM	
O=C1NC(=O)/C(=C\c2cccc(Br)c2)N1	> 200 µM	105 µM	

SMILES	EC50	IC50	outcome
O=c1/c(=C/c2cccc3ccccc23)sc2nc3ccccc3n12	> 30.2 µM	> 30.2 µM	
CC(CO)CCNc1ncnc2c1ncn2CCC(=O)O (configuration not stated)	> 200 µM	> 200 µM	
CCOC(=O)C1C(c2ccc(F)cc2)C(C(=O)OCC)C(O)(C(F)(F)F)OC1(O)C(F)(F)F (configuration not stated)			inactive
COc1ccc(/C=C(\C#N)c2ccc(C)cc2)cc1OC	> 200 µM	33.1 µM	
CCN(CC)CCC(=O)c1ccc(C)cc1	> 6170 µM	331 µM	
Cn1cc(NC(=O)Nc2cc(C(=O)Nc3cc(C(=O)Nc4ccc5c(S(=O)(=O)O)cccc5c4S(=O)(=O)O)n(C)c3)n(C)c2)cc1C(=O)Nc1cc(C(=O)Nc2ccc3c(S(=O)(=O)O)cccc3c2S(=O)(=O)O)n(C)c1	22.9 µM	148 µM	
Cn1c(=O)c2nc3c(=O)n(C)c(=O)n(C)c3nc2n(C)c1=O	> 200 µM	79.4 µM	
Cc1cc2ncn(C3CCCO3)c2cc1C (configuration not stated)	> 200 µM	> 200 µM	
COc1ccc(-c2c(O)c3c(OC)cc(OC)cc3oc2=O)cc1	> 200 µM	158 µM	
Cc1nc(C)c(C(=O)Nc2cccc3c2C(=O)NC3=O)cc1C(=O)Nc1cccc2c1C(=O)NC2=O	> 195 µM	> 195 µM	
COC[C@H](C)N=CN1CCc2ccccc2C1	> 1070 µM	> 1070 µM	
C=CCN(N=O)C(=O)NCCCC(NC(C)=O)C(=O)NCc1ccccc1 (configuration not stated)	> 661 µM	> 661 µM	
O=c1cc(N=P(c2ccccc2)(c2ccccc2)c2ccccc2)n(-c2ccccc2)c(=O)n1-c1ccccc1			inactive
CC(C)CCn1c(=O)c2c(=O)[nH][nH]c2c2ccccc21	> 200 µM	> 200 µM	
CN(C)CCCn1c2c3ccccc3ccc2c2oc(=O)c3ccccc3c21	> 33.1 µM	1.62 µM	
COCC1C(=O)c2cc3c(cc2C12C=CC1(C=C2)OCCO1)OCO3 (configuration not stated)	> 275 µM	11 µM	
Cc1cc(Br)cc(C)c1NC(=O)C(=O)C(C(=O)c1ccncc1)C1OC(=O)c2ccccc21 (configuration not stated)	> 339 µM	> 339 µM	
O=C(O)C1CCC(c2ccc(F)cc2F)N1 (configuration not stated)	> 200 µM	> 200 µM	
CCc1ccccc1NC(=O)C(=O)CC(=O)c1sc(Nc2ccccc2Cl)nc1C	> 200 µM	87.1 µM	
Nc1c(C(=O)OCc2ccccc2)[nH]c(=O)[nH]c1=O	> 200 µM	> 200 µM	
